Reference: patent US10980876B2, “Conjugate vaccine targeting a disease-causing biological protein” (OSAKA UNIVERSITY, priority 2016, dated 2021)
Where two headings read alike, the source gives them in different places.

How the values were obtained:
DPP4 = conditions: OSK-1-DPP4-17 100 μg/mouse; KLH-DPP4-17 20 μg/mouse mixed with Alum 1 mg/mouse; 4 administrations; 21 weeks; FIG. 8
Method: To a KLH-DPP4-17 group of mice, KLH-DPP4-17 and Alum (Alhydrogel 2% (InvivoGen)) were intracutaneously administered as a mixture at doses of 20 μg/mouse and 1 mg/mouse, respectively. To an OSK-1-DPP4-17 group of mice, OSK-1-DPP4-17 was intracutaneously administered at a dose of 100 μg/mouse. In either group, the conjugate was intracutaneously administered to Balb/c mice 3 times at 2-week intervals, and the 4th administration was performed at 11 weeks after the first administration. At 21 weeks after the first administration, blood samples were collected, and the amount of serum IgE antibody against DPP4 was measured by ELISA.

DPP4 epitope peptide [1] = conditions: 4 administrations; blood at 11 weeks; FIG. 3
Method: For this test, the following three groups were prepared: an OSK-1-DPP4 conjugate group (100 μg/mouse), a KLH-DPP4 conjugate (20 μg/mouse) plus Alum (Alhydrogel 2% (InvivoGen) 1 mg/mouse) group and a KLH-DPP4 conjugate (20 μg/mouse) plus OSK-1 (100 μg/mouse) group. Test samples were intracutaneously administered to Balb/c mice 3 times at 2-week intervals and at 9 weeks after the start of the administration, 4 times in total. At 11 weeks after the start of the administration, blood samples were collected, and the titer of each IgG subclass of antibodies against the DPP4 epitope peptide was measured by ELISA.

DPP4 epitope peptide [2] = system: DPP4 epitope peptide
Method: For this test, the following two groups were prepared: a physiological saline group and an OSK-1-DPP4 conjugate group (100 μg/mouse) (6 animals per group). Test samples were intracutaneously administered to Balb/c mice 3 times at 2-week intervals. Before the first administration and every 2 weeks until 8 weeks after the first administration, blood samples were collected, and the antibody titer against the DPP4 epitope peptide was measured by ELISA.
For this test, the following three groups were prepared: a KLH-DPP4 conjugate group (20 μg/mouse), an OSK-1-DPP4 conjugate group (100 μg/mouse) and an OSK-1-DPP4 conjugate (100 μg/mouse) plus Alum (Alhydrogel 2% (InvivoGen) 1 mg/mouse) group (2 animals per group). […] Before the first administration, every 2 weeks until 6 weeks after the first administration, and 12 weeks after the first administration, blood samples were collected, and the antibody titer against the DPP4 epitope peptide was measured by ELISA.
Six types of OSK-1-DPP4 conjugates containing different mouse DPP4 epitope peptides (SEQ ID NOs: 3, 5, 6, 8, 18 and 19) were intracutaneously administered to Balb/c mice at a dose of 100 μg per animal 3 times at 2-week intervals. Before the first administration and every 2 weeks after the first administration, blood samples were collected, and the antibody titer against each epitope peptide was measured by ELISA. […]

B16F10 melanoma cells [3] = conditions: vaccination once a week 4 times before implantation of B16F10 (1×10^5 cells/mouse)
Method: In addition, the adjuvant effect of the OSK-1 peptide on the antitumor effect of a WT1 peptide vaccine was also examined. For this test, the following four groups were prepared: a physiological saline group, a WT1 peptide (100 μg/mouse) plus poly(I:C) (InvivoGen; Poly(I:C) HMW VacciGrade, 50 μg/mouse) group, a WT1 peptide (100 μg/mouse) plus OSK-1 peptide (100 μg/mouse) group and an OSK-1-WT1 conjugate (350 μg/mouse) group (6 animals per group). The vaccines were administered to C57BL/6J mice once a week, 4 times in total. One week after the 4th administration, B16F10 melanoma cells (1×10^5 cells/mouse) were implanted into the dorsal skin. The vaccines were administered again one week after the cell implantation. The body weight and the diameter of the tumor were measured twice a week after the cell implantation. The diameter of the tumor was measured using a digital caliper, and the tumor volume was calculated by the formula: (major axis)×(minor axis)^2.

B16F10 melanoma cells [4] = conditions: 350 μg/mouse, vaccination started on day of implantation of B16F10 (3×10^5 cells/mouse)
Method: The antitumor effect of the same OSK-1-WT1 conjugate as used in Reference Example 1 was assessed. For this test, the following four groups were prepared: a physiological saline group, a WT1 peptide (100 μg/mouse) plus poly(I:C) (InvivoGen; Poly (I:C) HMW VacciGrade, 50 μg/mouse) group, an OSK-1-WT1 conjugate (350 μg/mouse) group and a cisplatin (5 mg/kg) group (10 animals per group). B16F10 melanoma cells (3×10^5 cells/mouse) were implanted to C57BL/6J mice, and at the same day, the vaccines were intracutaneously administered into the dorsal skin. The day of cell implantation was designated as Day 0. The vaccines were administered on Day 7, Day 14, Day 21, Day 28 and Day 35. Twice a week after the cell implantation, the diameter of the tumor was measured using a digital caliper, and the tumor volume was calculated by the formula: (major axis)×(minor axis)^2.

Substance | IgE production against the target protein (serum IgE antibody against DPP4) (DPP4) | titer of each IgG subclass of antibodies against the DPP4 epitope peptide (DPP4 epitope peptide [1]) | antibody production against the DPP4 epitope peptide (antibody titer, ELISA) (DPP4 epitope peptide [2]; 100 μg/mouse intracutaneously 3 times at 2-week intervals, blood until 8 weeks, FIG. 1) | antibody production-inducing capability (antibody titer against the DPP4 epitope peptide) (DPP4 epitope peptide [2]; OSK-1-DPP4 100 μg/mouse, KLH-DPP4 20 μg/mouse, Alum 1 mg/mouse, 3 times at 2-week intervals, up to 12 weeks, FIG. 2) | inhibitory effect on tumor growth (tumor volume) (B16F10 melanoma cells [3]; FIG. 4) | survival benefit (survival rate) (B16F10 melanoma cells [3]; FIG. 5) | inhibitory effect on tumor growth (tumor volume) (B16F10 melanoma cells [4]; FIG. 6) | survival benefit (survival rate) (B16F10 melanoma cells [4]; FIG. 7)
Ac-ELKLIFLHRLKRLRKRLKRK-X-ENSTFESFG (X=ε-Acp) [OSK1-DPP4-17] | no IgE production against the target protein was observed | IgG2a and IgG2b, which are Th1-type IgG subclasses, were also produced at high levels in addition to IgG1 | antibody production against the DPP4 epitope peptide was observed | comparable to that of the KLH-DPP4 conjugate |  |  |  | 
Ac-ELKLIFLHRLKRLRKRLKRK-X-RMFPNAPYL (X=ε-Acp) [OSK-1-WT1 conjugate] |  |  |  |  | the inhibitory effect on tumor growth and the survival benefit were observed | the inhibitory effect on tumor growth and the survival benefit were observed | modest, but the tumor volume was kept at lower levels than that of the physiological saline administration group (negative control) until Day 32 | comparable to those in the WT1 peptide plus poly(I:C) group and the cisplatin group
